Like-named read-outs stand apart in the source and are kept apart here.
What was measured:
Type in all cases: cell-based
[1] = tested on: yeast Saccharomyces cerevisiae; experiment: Simultaneous saccharification and fermentation (SSF) of sugarcane bagass slurry; conditions: for Fermentability: 7.5 and 10 mM, 13 and 45 hours (FIG. 9)
Experimental: The pretreatment of sugarcane bagass for SSF experiments was performed in the Swedish cellulosic ethanol pilot plant (operated by SEKAB E-Technology, Örnskoldsvik, Sweden). Sugarcane bagass was treated in a continuous mode in a 30-liter reactor at a temperature of 198-199° C. and with a residence time of 13-14 min. The feed rate was 24 kg (dry weight) per h and the bagass was impregnated with sulfur dioxide (0.5 kg/h). The pH after pretreatment was 2.7. The dry matter content was 19%. The pretreated material was cooled and stored at 4° C. until further use.
SSF experiments were also performed with sugarcane bagass slurries. The sugarcane bagass slurries were prepared as described in Example 1. Reducing agents, dithionite and sulphite, respectively, were added 10 min prior to inoculum in concentrations of studied 7.5 and 10 mM. The ethanol concentration was measured after 13 and 45 hours according to the protocol described in Example 1.

[2] = tested on: baker's yeast (Saccharomyces cerevisiae)
Experimental: The pH of the sugarcane bagass and spruce hydrolysates were adjusted to 5.5 with a 5 M solution of sodium hydroxide. The conditioning of each hydrolysate was performed in eight 100-mL glass vessels equipped with magnetic stirrer bars. 26 mL hydrolysate was added to all vessels, and the vessels were placed on a magnetic stirrer plate (IKA-Werke, Staufen, Germany). Sodium dithionite (chemical grade; >87%, Merck, Darmstadt, Germany) was added to hydrolysates in the concentrations 5 and 10 mM. Additions of sodium sulphite to 5 and 10 mM were also performed. The additions were made at room temperature (23° C.) and the samples were kept for 10 min with stirring. The experiments were performed in duplicates.
The efficiency of the additions of the reducing agents was compared with alkali detoxification.
Ethanol measurements were performed by using an enzymatic kit (Ethanol UV-method, Boehringer Mannheim GmbH, Mannheim, Germany). Fermentation experiments were performed to evaluate the effectiveness of the additions and treatments. For comparison, untreated hydrolysates were included in the fermentation experiments as well as reference fermentations of sugar-based medium with an amount of fermentable sugars (i.e. glucose and mannose) corresponding to that in the hydrolysate samples. The fermentations were carried out using baker's yeast (Saccharomyces cerevisiae) (Jastbolaget AB, Rotebro, Sweden). The yeast inoculum was prepared in 750-mL cotton-plugged shake flasks with 300 mL YEPD medium (2% yeast extract, 1% peptone, 2% D-glucose). The flasks were inoculated and incubated with agitation at 30° C. for approximately 12 h. The cells were harvested in the late exponential growth phase by centrifugation (Hermla Z206A, Hermle Labortechnik GmbH, Wehingen, Germany) at 1,500 g for 5 min. The cells were resuspended in an appropriate amount of sterile water to achieve an inoculum consisting of 2.0 g/L (cell dry weight) in all fermentation vessels. The fermentation was carried out in 14 25-mL glass flasks equipped with magnets for stirring and sealed with rubber plugs pierced with cannulas for letting out carbon dioxide. The hydrolysate samples (23.75 mL), or alternatively the sugar solution for reference fermentations, were added to the fermentation flasks along with 0.5 mL of a nutrient solution (150 g/L yeast extract, 75 g/L (NH4)2HPO4, 3.75 g/L MgSO4.7H2O, 238.2 g/L NaH2PO4.H2O), and 0.75 mL of yeast inoculum. The flasks were incubated at 30° C. in a water bath with magnetic stirring (IKA-Werke). Samples for measurement of sugars and ethanol were withdrawn during the fermentation. The glucose levels during the fermentation were estimated by using a glucometer (Glucometer Elite XL, Bayer AG, Leverkusen, Germany).

[3] = tested on: yeast Saccharomyces cerevisiae; experiment: Simultaneous saccharification and fermentation (SSF) of spruce slurry; conditions: for Final ethanol concentration: after 70 hours
Experimental: Addition of sodium dithionite and sodium sulphite was tested in an SSF process. Spruce was pretreated as described in Example 1 above. The spruce slurry was adjusted to pH 5.4 with a 5 M solution of sodium hydroxide. Ten 250-mL shake flasks equipped with magnetic stirrer bars were filled with 100 g of spruce slurry. Sodium dithionite or sodium sulphite was added to the slurries to final concentrations of 7.5 and 10 mM. The additions were performed at room temperature (23° C.) for 10 min with stirring. Duplicate experiments were made. Cellulase and cellobiase preparations were prepared and added to the slurry using the enzyme activity loadings as described in Example 1 above. Further, the yeast inoculum was prepared according to Example 1 above. Inoculums were added to give a start concentration of 2.0 g/L (cell dry weight) in every flask. No source of extra nutrients was added. For comparison, two flasks with spruce slurry to which no reducing agents had been added were included in the experiment. The flasks were incubated at 35° C. for 69 h in a water bath with magnetic stirring. The flasks were sealed with Parafilm (Pechiney Plastic Packaging Company, Chicago, Ill., USA) to prevent evaporation of ethanol. Samples were withdrawn for analysis of ethanol according to Examplel above.
A spruce slurry was prepared according to Examples 1 and 2 above. Different flasks were filled with 100 g each of the spruce slurry and were subjected to a SSF process according to Example 2 above, but with different amounts of dithionite and sulphite added. The produced ethanol was monitored during the fermentation. […]

[4] = spruce hydrolysate, 10 mM (FIGS. 1 and 2)
[5] = spruce hydrolysate, 14 h fermentation, 10 mM
[6] = 6 h fermentation, NH4OH detoxification, pH 9, 55° C., 3 h
[7] = spruce hydrolysate, 14 h fermentation, NH4OH detoxification, pH 9, 55° C., 3 h

Row | SMILES | Fermentability [1] | Balanced ethanol yield ([2]; 6 h fermentation, 10 mM) | Productivity ([2]; 6 h fermentation, 10 mM) | Yield (ethanol) ([2]; 6 h fermentation, 10 mM) | Glucose consumption rates and amounts of ethanol produced [2, 4] | Balanced ethanol yield [2, 5] | Productivity [2, 5] | Yield (ethanol) [2, 5] | Final ethanol concentration ([3]; 2.5 mM) | Final ethanol concentration ([3]; 5 mM) | Final ethanol concentration ([3]; 7.5 mM) | Final ethanol concentration ([3]; 10 mM) | Final ethanol concentration ([3]; 15 mM) | Final ethanol concentration ([3]; 20 mM) | Final ethanol concentration ([3]; 30 mM) | Ethanol production compared to untreated ([3]; 7.5 and 10 mM (FIG. 5)) | further results
1 | O=S([O-])[O-].[Na+].[Na+] [Sulphite, sodium sulphite] | improved fermentability | 0.21 g EtOH/Σglucose & mannose prior to detoxification | 2.9 g EtOH×L^−1×h^−1 | 0.32 g EtOH/g consumed glucose & mannose | substantial improvement compared to untreated hydrolysate | 0.16 g EtOH/Σglucose & mannose prior to detoxification | 1.2 g EtOH×L^−1×h^−1 | 0.29 g EtOH/g consumed glucose & mannose | did not result in as high final ethanol concentrations | did not result in as high final ethanol concentrations | 35 to 40 g/L | 35 to 40 g/L | about 40 g/L | about 40 g/L | about 40 g/L | higher ethanol production compared to the untreated hydrolysate | Ethanol production compared with dithionite samples ([3]; 7.5 and 10 mM (FIG. 5)): lower ethanol production compared to the samples to which dithionite was added; Time after which ethanol formation leveled off ([3]; 7.5 and 10 mM (FIG. 5)): 20 h
2 | N [NH4OH, ammonium hydroxide, reference compound] | – | – | – | – | – | – | – | – | – | – | – | – | – | – | – | – | Balanced ethanol yield [2, 6]: 0.25 g EtOH/Σglucose & mannose prior to detoxification; Productivity [2, 6]: 3.5 g EtOH×L^−1×h^−1; Yield (ethanol) [2, 6]: 0.34 g EtOH/g consumed glucose & mannose; Balanced ethanol yield [2, 7]: 0.37 g EtOH/Σglucose & mannose prior to detoxification; Productivity [2, 7]: 2.8 g EtOH×L^−1×h^−1; Yield (ethanol) [2, 7]: 0.43 g EtOH/g consumed glucose & mannose
3 | O=S([O-])S(=O)[O-].[Na+].[Na+] [Dithionite, Sodium dithionite] | improved fermentability | 0.28 g EtOH/Σglucose & mannose prior to detoxification | 3.9 g EtOH×L^−1×h^−1 | 0.34 g EtOH/g consumed glucose & mannose | comparable to those of the reference fermentation | 0.34 g EtOH/Σglucose & mannose prior to detoxification | 2.5 g EtOH×L^−1×h^−1 | 0.37 g EtOH/g consumed glucose & mannose | about 10 g/L | 35 to 40 g/L | highest ethanol production | highest ethanol production | highest ethanol production | 35 to 40 g/L | about 30 g/L | higher ethanol production compared to the untreated hydrolysate | Ethanol production, dithionite compared with sulphite ([1]; 10 and 7.5 mM (FIG. 9)): better than any of the sulphite concentrations; Ethanol concentration compared with other additions ([2]; 10 mM (FIG. 4)): higher ethanol concentration compared to addition of 5 mM dithionite or 10 mM sulphite; Glucose consumption rates and amounts of ethanol produced ([2]; spruce hydrolysate, 5 mM (FIGS. 1 and 2)): substantial improvement compared to untreated hydrolysate; Ethanol levels and ethanol formation ([3]; 7.5 mM, compared with 10 mM dithionite (FIG. 5)): reached the same high levels of ethanol, but ethanol formation was slightly slower; Time after which ethanol formation leveled off ([3]; 10 mM (FIG. 5)): about 45 h; Improvement of ethanol production, dithionite compared with sulphite ([3]; 10 mM (FIG. 8)): better improvement than the addition of sulphite
